Test results: US20250025443A1, “COMPOUNDS AND METHODS FOR TREATING CORONA VIRUSES” (CLEAR CREEK BIO, INC., priority 2021, published 2025)

These compounds were tested against SARS-CoV-2 Papain-Like Protease (PLpro) (Severe acute respiratory syndrome coronavirus 2 (2019-nCoV) (SARS-CoV-2), UniProt P0DTD1) (assay: biochemical). Settings: PLpro enzymatic fluorescence assay; class symbols; read-out: PLpro IC50.

SMILES | IC50 [nM]
Cc1ccc(OC[C@@H]2CCN2C)cc1C(=O)NC1(c2cc(N3CCC3)cc3ncccc23)CC1 [Compound 723, (S)—N-(1-(7-(Azetidin-1-yl)quinolin-5-yl)cyclopropyl)-2-methyl-5-((1-methylazetidin-2-yl)methoxy)benzamide] | < 100
[2H]C([2H])([2H])N1CC[C@H]1COc1ccc(C)c(C(=O)NC2(c3cc(OC)cc4ncccc34)CC2)c1 [Compound 732, (S)-N-(1-(7-Methoxyquinolin-5-yl)cyclopropyl)-2-methyl-5-((1-(methyl-d3)azetidin-2-yl)methoxy)benzamide] | < 100
Cc1ccc(OC[C@@H]2CCN2)cc1C(=O)NC1(c2cc(-c3ncn4ccccc34)cc3ncccc23)CC1 [Compound 733, (S)-5-(Azetidin-2-ylmethoxy)-N-(1-(7-(imidazo[1,5-a]pyridin-1-yl)quinolin-5-yl)cyclopropyl)-2-methylbenzamide] | < 100
C=C(C)c1cc(C2(NC(=O)c3cc(OC[C@H](C)N)ccc3C)CC2)c2cccnc2c1 [Compound 734, (S)-5-(2-Aminopropoxy)-2-methyl-N-(1-(7-(prop-1-en-2-yl)quinolin-5-yl)cyclopropyl)benzamide] | < 100
C=Cc1cc(C2(NC(=O)c3cc(OC[C@H](C)N)ccc3C)CC2)c2cccnc2c1 [Compound 735, (S)-5-(2-Aminopropoxy)-2-methyl-N-(1-(7-vinylquinolin-5-yl)cyclopropyl)benzamide] | < 100
Cc1ccc(OC[C@@H]2CCN2C)cc1C(=O)NC1(c2cc(-c3ncn4ccccc34)cc3ncccc23)CC1 [Compound 736, (S)—N-(1-(7-(Imidazo[1,5-a]pyridin-1-yl)quinolin-5-yl)cyclopropyl)-2-methyl-5-((1-methylazetidin-2-yl)methoxy)benzamide] | < 100
CNc1cc(C)c(C(=O)NC2(c3cc(OC)cc4ncccc34)CC2)cc1OC[C@@H]1CCN1C [Compound 737, (S)-N-(1-(7-Methoxyquinolin-5-yl)cyclopropyl)-2-methyl-4-(methylamino)-5-((1-methylazetidin-2-yl)methoxy)benzamide] | < 100
Cc1ccc(OC[C@@H]2CCN2C)cc1C(=O)NC1(c2cc(C#N)cc3ncccc23)CC1 [Compound 738, (S)-N-(1-(7-cyanoquinolin-5-yl)cyclopropyl)-2-methyl-5-((1-methylazetidin-2-yl)methoxy)benzamide] | < 100
Cc1ccc(OC[C@@H]2CCN2C)cc1C(=O)NC1(c2cc(OS(=O)(=O)C(F)(F)F)cc3ncccc23)CC1 [Compound 739, (S)-5-(1-(2-Methyl-5-((1-methylazetidin-2-yl)methoxy)benzamido)cyclopropyl)quinolin-7-yl trifluoromethanesulfonate] | < 100
Cc1ccc(OC[C@@H]2CCN2C)cc1C(=O)NC1(c2cc(N3CCOCC3)cc3ncccc23)CC1 [Compound 740, (S)-2-Methyl-5-((1-methylazetidin-2-yl)methoxy)-N-(1-(7-morpholinoquinolin-5-yl)cyclopropyl)benzamide] | < 100
C=Cc1cc(C2(NC(=O)c3cc(OC[C@@H]4CCN4C)c(NC)cc3C)CC2)c2cccnc2c1 [Compound 745, (S)-2-Methyl-4-(methylamino)-5-((1-methylazetidin-2-yl)methoxy)-N-(1-(7-vinylquinolin-5-yl)cyclopropyl)benzamide] | < 100
C=Cc1cc(C2(NC(=O)c3cc(OC[C@@H]4CCN4C)c(NC(C)=O)cc3C)CC2)c2cccnc2c1 [Compound 746, (S)-4-Acetamido-2-methyl-5-((1-methylazetidin-2-yl)methoxy)-N-(1-(7-vinylquinolin-5-yl)cyclopropyl)benzamide] | < 100
Cc1ccc(OC[C@@H]2CCN2C)cc1C(=O)NC1(c2cc(NCc3ccccc3)cc3ncccc23)CC1 [Compound 747, (S)—N-(1-(7-(Benzylamino)quinolin-5-yl)cyclopropyl)-2-methyl-5-((1-methylazetidin-2-yl)methoxy)benzamide] | < 100
COc1cc(C2(NC(=O)c3cc(OC[C@@H]4CCN4C)c(O)cc3C)CC2)c2cccnc2c1 [Compound 750, (S)-4-Hydroxy-N-(1-(7-methoxyquinolin-5-yl)cyclopropyl)-2-methyl-5-((1-methylazetidin-2-yl)methoxy)benzamide] | < 100
Cc1ccc(OC[C@@H]2CCN2C)cc1C(=O)NC1(c2cc(-c3ccc(CN[C@H]4CC[C@@H](O)C4)s3)cc3ncccc23)CC1 [Compound 751, N-(1-(7-(5-((((1S,3R)-3-Hydroxycyclopentyl)amino)methyl)thiophen-2-yl)quinolin-5-yl)cyclopropyl)-2-methyl-5-(((S)-1-methylazetidin-2-yl)methoxy)benzamide] | < 100
Cc1ccc(OC[C@@H]2CCN2C)cc1C(=O)NC1(c2cc(-c3ccc(CNC4CCCC4)s3)cc3ncccc23)CC1 [Compound 752, (S)—N-(1-(7-(5-((Cyclopentylamino)methyl)thiophen-2-yl)quinolin-5-yl)cyclopropyl)-2-methyl-5-((1-methylazetidin-2-yl)methoxy)benzamide] | < 100
Cc1ccc(OC[C@@H]2CCN2C)cc1C(=O)NC1(c2cc(-c3ccc(CO)s3)cc3ncccc23)CC1 [Compound 753, (S)-N-(1-(7-(5-(Hydroxymethyl)thiophen-2-yl)quinolin-5-yl)cyclopropyl)-2-methyl-5-((1-methylazetidin-2-yl)methoxy)benzamide] | < 100
C=Cc1cc(C2(NC(=O)c3cc(OC[C@@H]4CCN4C)c(O)cc3C)CC2)c2cccnc2c1 [Compound 755, (S)-4-Hydroxy-2-methyl-5-((1-methylazetidin-2-yl)methoxy)-N-(1-(7-vinylquinolin-5-yl)cyclopropyl)benzamide] | < 100

Same assay, conditions: SARS-CoV-2 PLpro enzymatic fluorescence assay; read-out: PLpro IC50

SMILES | IC50 [nM]
C=Cc1cc(C2(NC(=O)c3cc(OC[C@@H]4CCN4C)c(N)cc3C)CC2)c2cccnc2c1 [Compound 726, (S)-4-Amino-2-methyl-5-((1-methylazetidin-2-yl)methoxy)-N-(1-(7-vinylquinolin-5-yl)cyclopropyl)benzamide] | < 100
Cc1ccc(OC[C@@H]2CCN2C)cc1C(=O)NC1(c2cc(N)cc3ncccc23)CC1 [Compound 729, (S)-N-(1-(7-Aminoquinolin-5-yl)cyclopropyl)-2-methyl-5-((1-methylazetidin-2-yl)methoxy)benzamide] | < 100
CCCNc1cc(C2(NC(=O)c3cc(OC[C@@H]4CCN4C)ccc3C)CC2)c2cccnc2c1 [Compound 743, (S)-2-Methyl-5-((1-methylazetidin-2-yl)methoxy)-N-(1-(7-(propylamino)quinolin-5-yl)cyclopropyl)benzamide] | < 100
CC(=O)Nc1cc(C2(NC(=O)c3cc(OC[C@@H]4CCN4C)ccc3C)CC2)c2cccnc2c1 [Compound 744, (S)-N-(1-(7-Acetamidoquinolin-5-yl)cyclopropyl)-2-methyl-5-((1-methylazetidin-2-yl)methoxy)benzamide] | < 100
C=Cc1cc(C2(NC(=O)c3cc(OCC45CCCN4CCC5)ccc3C)CC2)c2cccnc2c1 [Compound 748, 2-Methyl-5-((tetrahydro-1H-pyrrolizin-7a (5H)-yl)methoxy)-N-(1-(7-vinylquinolin-5-yl)cyclopropyl)benzamide] | < 100
C=Cc1cc(C2(NC(=O)c3cc(OC45CCCN(CCC4)C5)ccc3C)CC2)c2cccnc2c1 [Compound 749, 5-(1-Azabicyclo[3.3.1]nonan-5-yloxy)-2-methyl-N-(1-(7-vinylquinolin-5-yl)cyclopropyl)benzamide] | < 100
